“Also recorded” adds a separate entry of the source.
Columns and labels:
[1] = system: polytrauma/hemorrhage rodent model; test: Intravenous PHDi at 20 min after polytrauma/hemorrhage (FIG. 6); assay type: in vivo, rat
Method: FIG. 6. The effect of intravenous administration of PHDi after polytrauma/hemorrhage. PHDi (MK-8617, 1 mg/kg, n=8) or vehicle (n=7) was administered intravenously at 20 min after trauma. (FIG. 6A) Mean arterial pressure (MAP); (FIG. 6B) Lactate (hyperlactatemia); (FIG. 6C) Prothrombin time (PT, acute traumatic coagulopathy); and (FIG. 6D) Fibrinogen level.
PHDi (MK-8617, 1 mg/ml in 500 μL of 5% DMSO, 10% PEG 400, and 85% normal saline, average dose 1.26±0.05 mg/kg, n=8), or vehicle (n=7) was administered intravenously at 20 min after trauma. The surviving animals were euthanized 4 hours after trauma.

[2] = system: rats with lethal hemorrhagic shock; test: Intravenous PHDi in lethal hemorrhagic shock, fixed-volume hemorrhage 65% EBV, FWB at 60 min (FIG. 7-10); assay type: in vivo, Sprague-Dawley rats
Method: For the experiments in this disclosure, fixed-volume hemorrhage (65% estimated blood volume (EBV)) was performed in isoflurane anesthetized Sprague-Dawley rats. In this model, the initial 40% of total volume of hemorrhage was performed by continuous blood draw using syringe pump within first 2 min, followed by manually repeatedly drawing 1.5 ml of whole blood every 2 min at 10 min, and 1 ml of whole blood every 3 min thereafter until achieving the targeted volume of hemorrhage, and thus 40% bleeding occurs within the first 2 minutes (fast hemorrhage), another 40% between 2-10 minutes, and the rest 20% between 10-22 minutes (slow hemorrhage).
Then, the animals were treated with 500 u L PHDi (MK-8617 at 1 mg/ml, in a dissolvent composed of 5% DMSO, 10% PEG 400, and 85% normal saline, average dose at 1.24±0.07 mg/kg) or vehicle (n=13 each) intravenously at 20 min after hemorrhage. At 60 min after hemorrhage, surviving animals were resuscitated with fresh whole blood (FWB, 20% EBV) using shed blood collected at 2 min after hemorrhage. The 60 min- or 4 hour survivability was analyzed
For the measurement of metabolites (lactate and HCO3) and ATP, blood samples were harvested at time point 0 (baseline), 20 minutes (prior to PHDi), 60 minutes (prior to fresh whole blood (FWB)), and 240 minutes after polytrauma/hemorrhage.

[3] = system: rats with polytrauma and hemorrhagic shock; test: Oral PHDi prior to polytrauma/hemorrhage, pilot study (FIG. 3); assay type: in vivo, Sprague-Dawley rats
Method: FIG. 3. The effect of PHDi prior to polytrauma/hemorrhage on lactate level. PHDi (MK-8617, 1 mg/kg) or vehicle was orally applied in rats prior to trauma (n=3-4/group). The lactate in whole blood samples were collected at baseline (BSL), shed hemorrhage blood (HEM), 2- and 4 hours after trauma and measured by iSTAT. […] Values represent as means±SEM.
PHDi (MK-8617, 500 microgram per rat) was orally applied prior to trauma, and the lactate (measured by iSTAT) was measured at baseline, 2 and 4 hours after trauma.
Model-1, acute sub-lethal hemorrhagic shock with polytrauma (40% hemorrhage, fast speed hemorrhage at >1 ml/min, target MAP at 35-40 mmHg for 30 min): This model has intensive tissue damage and transient compensated hemorrhagic shock, and the animals survived for 4 hours after trauma without resuscitation or any intervention. The death occurs after 4 hours after trauma.
Briefly, Sprague-Dawley rats (350-450 gram) were anesthetized with isoflurane/100% oxygen through a nosecone and allowed to breathe spontaneously. Cannulas were placed in the left femoral artery and vein for measurement of arterial blood pressure and to obtain vascular access (blood draw and resuscitation and drug administration) respectively. Polytrauma was induced by laparotomy, crush injury to the small intestines, the left and medial liver lobes, and the right leg skeletal muscle and by fracture of the right femur. In detail, a midline incision was made through the abdominal skin and underlying muscle layers. A 10-cm section of small intestines was isolated just anterior to the cecum and run gently through a clamp covered with silastic tubing with a 2-mm distance between the clamps to cause a gentle crush injury. The right and medial lobes of the liver will receive three crushes to each lobe using the same clamp. The intestines and liver were replaced, and the abdominal incision was closed with sutures in two layers. To fracture the […], a modification of a 3-point impact device was used by dropping six stainless-steel balls (65 g each) stacked together, from 36 inches through a guide tube (1 inch internal diameter) to impact on a rounded aluminum blade resting on the mid-right femur with the right leg resting on two aluminum stands, one under the hip and one under the knee. A large hemostat (5 in tongs) was used to clamp the muscle of the right leg 10 times. The crush injury was intended to cause microvascular damage, as opposed to cutting, chopping, or mincing of the tissue, which would have led to uncontrolled hemorrhage. The polytrauma was performed about 10 min followed immediately by hemorrhage. […]
The lactate in whole blood samples were collected at baseline (BSL), shed hemorrhage blood (HEM), 2- and 4 hours after trauma, and the lactate was measured by iSTAT. […]

## COc1ccc(C(NC(=O)c2cnc(-c3cccnn3)nc2O)c2ccc(OC)cc2)cc1 [MK-8617, N-[Bis(4-methoxyphenyl)methyl]-4-hydroxy-2-(pyridazin-3-yl)pyrimidine-5-carboxamide]
[1]; after treatment, MK-8617 i.v. 1.26±0.05 mg/kg at 20 min after trauma, n=8
  mean arterial pressure (MAP) compared with vehicle: significantly higher
[1]; at 60 min, i.v. at 20 min after trauma
  reduction in the elevation of lactate as compared with vehicle: about 30%
[1]; i.v. at 20 min after trauma
  prothrombin time (PT, acute traumatic coagulopathy): reduced the prolongation of prothrombin time
[2]; 10 min after treatment, i.v. 1.24±0.07 mg/kg at 20 min after hemorrhage, vehicle 31.3±1.1, p=0.02
  MAP: 35.9±1.2 mmHg
[2]; PHDi treated animals, FWB at 60 min
  MAP after whole blood resuscitation (FWB): partial restoration of MAP
[2]; acute administration
  time to death: extends the time to death
[2]; at 60 min
  reduction in the elevation of lactate as compared with vehicle: about 30%
[2]; at 4 hr after transfusion
  lactate after whole blood resuscitation: reduced lactate
[2]; n=13, vehicle 15%, p=0.03
  60 min survivability: 62%
[2]; surviving animals at 60 min and 4 hours followed by whole blood resuscitation
  prothrombin time (PT): significantly elevated
[2]; vehicle 1 of 2, p=0.036
  animals surviving for 4 hours after hemorrhage among those that received whole blood resuscitation: 6 of 8
[3]; 2 and 4 hr after trauma, oral prior to trauma
  average levels of lactate attenuated as compared with vehicle: about 30%
[3]; 4 hours after trauma
  survival: all animals survived after 4 hours
[3]; 4 hours after trauma, MK-8617 1 mg/kg orally prior to trauma, n=4
  lactate in whole blood (iSTAT): 2.365 ± 0.733 mmol/L
[3]; oral MK-8617 1 mg/kg prior to trauma, 1 mg/kg
  rise of lactate: attenuated the rise of lactate; also recorded: mitigating the elevation of lactate; also recorded: attenuates lactate levels
